Legend:
MAT2A homodimer = biological target: T1, MAT2A homodimer (Homo sapiens, UniProt P31153); assay: MAT2A biochemical assay (phosphate release, PiColorLock Gold); details: recombinant MAT2A homodimer, 60 min pre-incubation, 25° C.; read-out: Enzyme Inhibition
T1 construct: inferred from Ni sepharose purification and imidazole elution; made in house; host or cells: SF9 insect cells, recombinant baculovirus (Bac to Bac, pFASTBAC1)
Protocol: Mat2A protein was expressed by recombinant baculovirus in SF9 infected cells using the Bac to Bac system cloned into the pFASTBAC1 vector (Invitrogen, Carlsbad, CA). Recombinant MAT2A was isolated from the cell lysate of 150 g of infected cells using HP Ni sepharose column chromatography. Recombinant MAT2A homodimer was eluted with 250 and 500 mM imidazole, and fractions containing MAT2A were identified by sodium dodecyl sulfate polyacrylamide gel electrophoresis and pooled.
For determination of the inhibitory potency of compounds against the MAT2A homodimer, protein was diluted to 4 μg/mL in assay buffer (50 mM Tris, pH 8.0, 50 mM KCl, 15 mM MgCl2, 0.3 mM EDTA, 0.005% [w/v] bovine serum albumin [BSA]). Test compound was prepared in 100% dimethyl sulfoxide (DMSO) at 50× the desired final concentration. A 1 μL volume of compound dilution was added to 40 μL of enzyme dilution and the mixture was allowed to equilibrate for 60 minutes at 25° C. The enzymatic assay was initiated by the addition of 10 μL of substrate mix (500 μM ATP, pH 7.0, 400 μM L-methionine in 1× assay buffer), and the mixture was incubated for a further 60 minutes at 25° C. The reaction was halted and the liberated phosphate released by the enzyme in stoichiometric amounts by the production of S-adenosyl methionine (SAM) was measured using the PiColorLock Gold kit (Innova Biosciences, UK). Absolute product amounts were determined by comparison to a standard curve of potassium phosphate buffer, pH 8.0.

HCT116 MTAP−/− = assay: Inhibition of cellular proliferation (Cell Titer Glo), HCT116 MTAP-/-; format: cell-based; details: Homo sapiens, HCT-116, 96 h, 4 days, read-out: 4 Day Relative Growth Inhibition (MTAP −/−)
Protocol: (§1) Test compound impact on cancer cell growth was assessed by treating cancer cells with compound for 4 days and then measuring proliferation using an ATP-based cell proliferation readout (Cell Titer Glo, Promega Corporation).
(§2) In a typical assay an isogenic pair of HCT116 human colon carcinoma cell lines which vary only in MTAP deletion status (HCT116 MTAP+/+ and HCT116 MTAP−/−) were plated in 96-well dishes at appropriate cell density. Following 24 hours, cells were then treated with the candidate MAT2A inhibitor. Prior to addition to cells, the compound was first serially diluted in 100% DMSO, typically as a 3-fold serial dilution starting at 500× top dose with 10 dose points including DMSO only control. Compound was then transferred to a working stock plate in cell culture media by adding 5 μL of compound in DMSO to 495 μL of cell culture media. This working stock was then added to cells via a further 5-fold dilution, by adding 25 μL of working stock to 100 μL of cells in culture media. Following compound addition, cells were incubated at 37° C./5% CO2 for 4 days.
(§3) To measure inhibition of cellular proliferation, cells were allowed to equilibrate to room temperature for 30 minutes, and were then treated with 125 μL of Cell Titer Glo reagent. The plate was then covered with aluminum foil and shaken for 15 minutes to ensure complete mixing and full cell lysis. Luminescent signal was then measured using a plate-based luminometer Veritas version 1.9.2 using ATP standard curve to confirm assay reproducibility from run to run. This luminescence measure was converted to a proliferation index by subtracting from each data point the ATP luminescence signal measured from a bank (no cells) well and dividing by the ATP luminescence signal measured in 0.2% DMSO control well adjusted for signal in blank well. Compound activity was then represented as a percentage change in proliferation relative to a within-plate DMSO control against log 10 of compound concentration in molar (M) units.

HCT116 MTAP+/+ = assay: Inhibition of cellular proliferation (Cell Titer Glo), HCT116 MTAP+/+; format: cell-based; details: Homo sapiens, HCT-116, 96 h, 4 days, read-out: 4 Day Relative Growth Inhibition (MTAP +/+)
Protocol: as §1, §2, §3

[1] = tested on: MAT2A activity (SAM) in HCT116 cells with deleted MTAP gene; assay: Cellular assay of target engagement (SAM) by LC-MS/MS; format: cell-based; details: Homo sapiens, HCT-116; HCT116 MTAP −/−, 72 hrs; read-out: Cell 72 h SAM Inhibition (MTAP −/−)
Protocol: Measurement of MAT2A activity in cells was made by direct quantitation of the abundance of the product of its enzymatic activity, SAM. Cancer cells were treated with candidate MAT2A inhibitors for a suitable incubation period, and the cells were then lysed using a reagent which quenched any further enzyme activity. Soluble metabolites including SAM were collected and SAM itself was directly measured from the lysate using quantitative LC-MS/MS.
A typical assay was performed using an HCT116 human colon carcinoma cell line which was genetically engineered to delete the MTAP gene (commercially available from Horizon Discovery). This cell line was utilized because it was determined that loss of the MTAP gene predicts sensitivity to MAT2A inhibitors. Cells were plated in 96-well dishes at appropriate cell density. Following 24 hours, cells were then treated with the candidate MAT2A inhibitor. Prior to addition to cells, the compound was first serially diluted in 100% DMSO, typically as a 3-fold serial dilution starting at 500× top dose with 10 dose points including DMSO only control. Compound was then transferred to a working stock plate in cell culture media by adding 5 μL of compound in DMSO to 495 μL of cell culture media. This working stock was then added to cells via a further 5-fold dilution, by adding 25 μL of working stock to 100 μL of cells in culture media. Following compound addition, cells were incubated at 37° C./5% CO2 for 72 hrs.
To quantitate SAM levels following compound treatment, cells were gently washed once in ammonium carbonate buffer (75 mM at pH 7.4), placed on dry ice, and lysed with metabolite extraction buffer (80% cold methanol and 20% water (v/v) with acetic acid at 1M final concentration with 200 ng/mL deuterated d3-SAM as internal control). Following centrifugation at 4° C. at 3,200 rpm for 30 minutes, the supernatant was collected and stored at −80° C. until analysis by Liquid Chromatography with tandem Mass Spectrometry (LC-MS/MS). LC-MS/MS analysis was performed using an API6500 Mass Spectrometer (Sciex, Framingham, MA, USA) operating in positive ion spray mode and equipped with a Waters UPLC Acquity (Waters, Milford, MA, USA) BEH Amide column. Multiple Reaction Monitoring data was acquired for SAM and the d3-SAM standard, using a mass transition pair at m/z 399.2→250.1 and 402.2→250.1, respectively. In a typical LC-MS/MS analysis, the initial flow rate was 0.5 ml/min of 25% mobile phase A (acetonitrile and water at 5:95 (v/v) with 1% formic acid and 10 mM ammonium acetate) and 75% mobile phase B (acetonitrile and water at 95:5 (v/v) with 1% formic acid and 10 mM ammonium acetate), 0.2-0.5 minutes with 75%-35% mobile phase B, 25%-65% mobile phase A, at 0.5 min 65% mobile phase A and 35% mobile phase B, 1.0-1.1 minutes with 35%-75% mobile phase B, 65%-25% mobile phase A, at 1.1 min 25% mobile phase A and 75% mobile phase B with a total run time of 1.5 minutes.

T1 sequence (P31153 whole entry): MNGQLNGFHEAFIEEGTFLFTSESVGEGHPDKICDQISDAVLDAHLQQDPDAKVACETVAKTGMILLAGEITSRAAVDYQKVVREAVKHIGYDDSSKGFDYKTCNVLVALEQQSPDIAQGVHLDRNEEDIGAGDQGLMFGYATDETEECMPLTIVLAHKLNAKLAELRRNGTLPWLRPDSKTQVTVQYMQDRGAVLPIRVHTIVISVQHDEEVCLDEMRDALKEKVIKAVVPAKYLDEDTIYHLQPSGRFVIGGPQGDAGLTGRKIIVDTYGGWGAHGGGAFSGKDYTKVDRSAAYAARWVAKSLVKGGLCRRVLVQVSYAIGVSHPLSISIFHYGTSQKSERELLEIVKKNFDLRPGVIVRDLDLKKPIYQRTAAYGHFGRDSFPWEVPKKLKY

Structure (SMILES) | IC50 (MAT2A homodimer) [nM] | IC50 (HCT116 MTAP−/−) [nM] | IC50 (HCT116 MTAP+/+) [nM] | IC50 [1] [nM]
Cn1cc2cc(-n3nc4ccc(OCC(F)F)nc4c(-c4ccc(C5CC5)nc4)c3=O)ccc2n1 [Example 107] | < 100 | < 100 | ≥ 1000 | < 100
[2H]C([2H])([2H])Oc1ccc(-c2c(=O)n(-c3ccc4nn(C)cc4c3)nc3ccc(OCC(F)F)nc23)cc1 [Example 108] | < 100 | < 100 | ≥ 1000 | < 100
Cn1cc2cc(-n3nc4ccc(OCC(F)F)nc4c(-c4ccc(OC(F)(F)F)cc4)c3=O)ccc2n1 [Example 109] | < 100 | < 100 | ≥ 1000 | < 100
CCOc1ccc2nn(-c3ccc(OC)cc3)c(=O)c(-c3ccc(C)nc3)c2n1 [Example 112] | < 100 | 100 to 1000 | ≥ 1000 | 100 to 1000
Cn1cc2cc(-n3nc4ccc(OCC(F)F)nc4c(-c4ccc(C5CC5)cc4)c3=O)ccc2n1 [Example 114] | < 100 | < 100 | ≥ 1000 | < 100
CCOc1ccc2nn(-c3ccc(OC)cc3)c(=O)c(-c3ccc(OC(F)F)nc3)c2n1 [Example 122] | < 100 | < 100 | ≥ 1000 | 100 to 1000
Cn1cc2cc(-n3nc4ccc(OCC(F)(F)F)nc4c(-c4ccc(OC(F)F)cc4)c3=O)ccc2n1 [Example 123] | < 100 | < 100 | 100 to 1000 | < 100
Cn1cc2cc(-n3nc4ccc(OCC(F)F)nc4c(-c4ccc(OC(F)F)cc4)c3=O)ccc2n1 [Example 125, 6-(2,2-difluoroethoxy)-4-(4-(difluoromethoxy)phenyl)-2-(2-methyl-2H-indazol-5-yl)pyrido[3,2-c]pyridazin-3(2H)-one] | < 100 | < 100 | 100 to 1000 | < 100
Cn1cc2cc(-n3nc4ccc(OCC(F)F)nc4c(-c4ccc(OC(F)F)nc4)c3=O)ccc2n1 [Example 126] | < 100 | < 100 | ≥ 1000 | < 100
Cn1cc2cc(-n3nc4ccc(OCC(F)F)nc4c(-c4ccc(OC(F)(F)F)nc4)c3=O)ccc2n1 [Example 128] | < 100 | < 100 | ≥ 1000 | < 100
Cn1cc2cc(-n3nc4ccc(OCCF)nc4c(-c4ccc(OC(F)F)cc4)c3=O)ccc2n1 [Example 129] | < 100 | < 100 | ≥ 1000 | < 100
COc1ccc(-c2c(=O)n(-c3ccc4nn(C)cc4c3)nc3ccc(OCC(F)F)nc23)cn1 [Example 130] | < 100 | < 100 | 100 to 1000 | < 100
Cn1cc2cc(-n3nc4ccc(OCC5CCC5)nc4c(-c4ccc(OC(F)F)cc4)c3=O)ccc2n1 [Example 131] | < 100 | ≥ 1000 | ≥ 1000 | 100 to 1000
Cn1cc2cc(-n3nc4ccc(OCCC(F)(F)F)nc4c(-c4ccc(OC(F)F)cc4)c3=O)ccc2n1 [Example 132] | < 100 | 100 to 1000 | ≥ 1000 | 100 to 1000

Continued, values first:

IC50 (MAT2A homodimer) [nM] | IC50 (HCT116 MTAP−/−) [nM] | IC50 (HCT116 MTAP+/+) [nM] | IC50 [1] [nM] | Structure (SMILES)
< 100 | < 100 | 100 to 1000 | < 100 | [2H]C([2H])([2H])Oc1ccc(-c2c(=O)n(-c3ccc4nn(C)cc4c3)nc3ccc(OCC)nc23)cc1 [Example 110]
< 100 | < 100 | ≥ 1000 | < 100 | CCCOc1ccc2nn(-c3ccc4nn(C)cc4c3)c(=O)c(-c3ccc(OC(F)F)cc3)c2n1 [Example 111]
< 100 | 100 to 1000 | ≥ 1000 | < 100 | Cn1cc2cc(-n3nc4ccc(OC5CC5)nc4c(-c4ccc(Cl)cc4)c3=O)ccc2n1 [Example 113]
< 100 | < 100 | 100 to 1000 | < 100 | CCOc1ccc2nn(-c3ccc4nn(C)cc4c3)c(=O)c(-c3ccc(OC)cc3)c2n1 [Example 115]
< 100 | < 100 | ≥ 1000 | < 100 | Cn1cc2cc(-n3nc4ccc(OCC(F)(F)F)nc4c(-c4ccc(Cl)cc4)c3=O)ccc2n1 [Example 116]
< 100 | < 100 | ≥ 1000 | < 100 | CCOc1ccc2nn(-c3ccc(OC)cc3)c(=O)c(-c3ccc(Cl)cc3)c2n1 [Example 117]
< 100 | < 100 | ≥ 1000 | < 100 | CCOc1ccc2nn(-c3ccc4nn(C)cc4c3)c(=O)c(-c3ccc(Cl)cc3)c2n1 [Example 119]
< 100 | < 100 | ≥ 1000 | < 100 | CCOc1ccc2nn(-c3ccc4nn(C)cc4c3)c(=O)c(-c3ccc(OC(F)F)nc3)c2n1 [Example 120]
< 100 | < 100 | ≥ 1000 | < 100 | CCOc1ccc2nn(-c3ccc4nn(C)cc4c3)c(=O)c(-c3ccc(OC(F)(F)F)nc3)c2n1 [Example 121]
< 100 | < 100 | 100 to 1000 | < 100 | Cn1cc2cc(-n3nc4ccc(OCC(F)F)nc4c(-c4ccc(Cl)cc4)c3=O)ccc2n1 [Example 124]
< 100 | < 100 | ≥ 1000 | < 100 | CCOc1ccc2nn(-c3ccc4nn(C)cc4c3)c(=O)c(-c3ccc(C(F)(F)F)nc3)c2n1 [Example 127]

From patent publication US12077534B2, “Aza-heterobicyclic inhibitors of MAT2A and methods of use for treating cancer” (Les Laboratoires Servier SAS, priority 2018, dated 2024)
